US20100137403A1, “METHOD FOR ENHANCING COGNITION OR INHIBITING COGNITIVE DECLINE” (priority 2008, published 2010)
“Also recorded” adds a separate entry of the source. Read-outs that look alike come from different tables or passages of the source.

Key:
[1] = system: C57BL/6 mice; conditions: general statement on the SAT test; cited from earlier work
[2] = system: C57BL/6 mice; experiment: Spontaneous alternation task (SAT) test of short-term memory in T-maze; assay type: in vivo, mouse; conditions: for alternation (short-term memory) in healthy mice / alternation (short-term memory) in scopolamine-treated mice: 30 mg/kg i.p. 8 hours prior to the SAT; for alternation (short-term memory) in healthy mice: administered alone; for alternation (short-term memory) in scopolamine-treated mice: scopolamine 1 mg/kg i.p. 30 minutes prior
[3] = system: NF-κB; experiment: In vivo bio-photonic imaging of NF-κB luciferase reporter transgenic mice; set-up: species or system mouse; conditions: for NF-κB activation in brain (dorsal brain images): Example 3
[4] = system: NF-κB; experiment: as above; set-up: species or system mouse; conditions: for NF-κB activation in the brain: Example 4
Description: The animal used to establish this criterion is preferably a laboratory animal, more preferably a rodent, illustratively a mouse. […] In this technique, a test compound, in this case a Ca^2+ channel blocker, is administered by intravenous (i.v.) injection to transgenic mice having a firefly luciferase reporter driven by one or more NF-κB response elements fused to the reporter (NF-κB::LUC mice). NF-κB expression, nuclear translocation and binding to the response elements in any anatomical or sub-anatomical region of a mouse results in activation of the luciferase reporter in that region. Activated luciferase, in presence of a luciferin substrate, emits light which can be detected and quantitated, and can be used in whole-body imaging to identify specific anatomical or sub-anatomical regions where the luciferase is activated as a result of NF-κB expression. Mice can be anesthetized and imaged at time intervals after administration of the test compound to reveal temporal as well as spatial distribution of NF-κB expression.
In vivo bio-photonic imaging was used to investigate temporal and spatial modulation of physiological processes following acute tiapamil administration to mice. For these studies we employed an NF-κB luciferase transgenic line that was constructed using three NF-κB response elements fused to a firefly luciferase reporter gene. The effect of tiapamil on NF-κB activation was monitored as modulation of detectable luciferase reporter activity, a surrogate for NF-κB activation and nuclear translocation with subsequent binding to the response elements of the reporter. Luciferase activity was detected by its ability to cleave luciferin, a luciferase substrate. Light emitted was detected and analyzed using a highly sensitive CCD imaging system.
For the present study, female NF-κB transgenic mice (5 per treatment) received tiapamil i.v. at 1 or 10 mg/kg in a saline vehicle, or vehicle control. At 2, 4 and 6 hours after administration, the animals were anesthetized and imaged. Visual and quantitative analysis was then performed based on counting photons of light emitted from specific anatomical regions. […] The data are depicted quantitatively in FIG. 1.

[5] = system: Sprague-Dawley rats; experiment: Novel object recognition (NOR) test of long-term memory; assay type: in vivo, rat
Source text: The novel object recognition (NOR) paradigm is a rodent model of recognition learning memory retrieval and takes advantage of the spontaneous behavior of rodents to investigate a novel object by comparison with a familiar object (Ennaceur & Delacour (1988) Behav Brain Res. 31:47-59). NOR has been employed extensively to indicate potential cognition-enhancing properties of test compounds.
The objective of this study was to test cognition-enhancing properties of tiapamil using the NOR test of long-term memory in healthy male rats. Adult male Sprague-Dawley rats were used in this study. Animals were placed in the experimental rooms at postnatal day 80 and assigned unique identification numbers (tail marked). Pairs were housed in polycarbonate cages with filter tops and acclimated for 7 days prior to commencing any studies. Animals were maintained in a 12 hour light/dark cycle with room temperature maintained at 22±2° C. with relative humidity maintained at approximately 50%. Food and water were provided ad libitum. All animals were examined, handled, and weighed for two days prior to initiation of the study to assure adequate health and suitability and to minimize non-specific stress associated with manipulation. Each animal was randomly assigned across treatment groups (8 animals per group) and balanced by cage numbers. […]
Tiapamil (10 or 30 mg/kg) was dissolved in saline and administered i.p. 1 or 8 hours prior to training. […] The rats were assessed for cognitive ability in a test apparatus comprising an open-field arena placed in a sound-attenuated room under dimmed lighting. […] All tests were video-scored blind. […] This 10-minute training period, T1, was recorded for subsequent analysis if necessary. […] After 24 hours, each rat was placed again in the test arena for 10 minutes (T2) in presence of a copy of the familiar object and a novel object, and the time spent exploring both objects was recorded. […] The NOR index was measured as the ratio of time spent exploring the novel object over total time spent exploring both objects (familiar+novel), during retention session T2.

[6] = system: NF-κB; experiment: Luciferase imaging of 1 mm coronal brain sections from NF-κB transgenic mice; assay type: in vivo, mouse; conditions: 1 and 10 mg/kg, 6-hour time point
Source text: Evaluation of tiapamil in the NF-κB transgenic mouse line was repeated essentially as described in Example 1 and whole-body images were collected at the 6-hour time point. Brains were rapidly removed, chilled in ice-cold saline and sliced into 1 mm coronal sections. The sections were then placed onto glass slides, covered with luciferin solution (Luciferase Assay System substrate, Promega) and subsequently imaged in an IVIS 200 imaging system (Caliper Corp.) to evaluate effect of tiapamil on regional distribution of luciferase activity in the brain.

[7] = in vivo; cited from earlier work
[8] = system: young adult mice; conditions: cited from earlier work
[9] = system: mouse cerebellar neurons; conditions: cited from earlier work
[10] = system: nucleus basalis magnocellularis lesioned rats; conditions: cited from earlier work
[11] = system: mice; experiment: Lethality of phenylalkylamine Ca2+ channel blockers in mice; assay type: in vivo; conditions: 10 mg/kg i.v.
Source text: […]. The doses administered for these studies were selected to reflect the previously characterized potency of each of the drugs on blocking L-type Ca^2+ channel function. […].

For COc1cc2c(cc1OC)C(=O)C(CC1CCN(Cc3ccccc3)CC1)C2 (centres unmarked) [donepezil], the spontaneous alternation [1] is listed as “enhanced”.
For CN1[C@@H]2C[C@@H](OC(=O)[C@H](CO)c3ccccc3)C[C@H]1[C@@H]1O[C@@H]12 [scopolamine], the spontaneous alternation [1] is given as “impaired”.
With O=C(O)c1cc(/N=N/c2ccc(S(=O)(=O)Nc3ccccn3)cc2)ccc1O [sulfasalazine] the “effect on tiapamil-induced short-term memory enhancement” value ([2]; sulfasalazine 3 mg/kg i.p. co-administered with tiapamil 30 mg/kg 8 hours prior to the SAT, healthy mice) was “loss of tiapamil's memory-enhancing effects”, the “measureable NF-κB activity” value ([3]; Example 5, co-administration of tiapamil and high-dose sulfasalazine) was “increased amount of measureable NF-κB activity” and the “measureable NF-κB activity” value ([3]; Example 5, high-dose sulfasalazine alone) was “increased amount of measureable NF-κB activity”.
For COc1ccc(CCN(C)CCCC2(c3ccc(OC)c(OC)c3)S(=O)(=O)CCCS2(=O)=O)cc1OC [tiapamil, N-(3,4-dimethoxyphenethyl)-2-(3,4-dimethoxyphenyl)-N-methyl-m-dithian-2-propylamin-1,1,3,3-tetroxide], the “NF-κB activation in the brain” value ([4]; 10 mg/kg i.v., surviving animals, 2, 4, 6 hours, 10 mg/kg) was “robust effect; also recorded: substantially increased”, the “NF-κB activation in peripheral anatomical regions” value ([4]; i.v. 1 or 10 mg/kg) was “no effect” and the “NF-κB expression in the head” value ([4]; i.v. 1 or 10 mg/kg, 4 and 6 hours after treatment) was “dose-dependent increase”. For the same compound, the “alternation (short-term memory) in healthy mice” value [2] was “enhances short-term memory”, the “alternation (short-term memory) in healthy mice” value ([2]; listed as Tiapamil) was “increased the number of alternation events” and the “alternation (short-term memory) in scopolamine-treated mice” value [2] was “reverses memory deficits”. For the same compound, the “alternation (short-term memory) in scopolamine-treated mice” value ([2]; listed as Tiapamil) was “prevented scopolamine-induced impairment”, the “NOR index 24 hours after training” value ([5]; 10 mg/kg i.p., 1 hour) was “significantly increased NOR index” and the “NOR index 24 hours after training” value ([5]; 10 mg/kg i.p., 8 hours) was “significantly increased NOR index”. The “NOR index 24 hours after training” value ([5]; 30 mg/kg i.p.) was “not effective”, the “luciferase expression in all regions of the brain evaluated” value [6] was “dramatic effect” and the “NF-κB activation in brain (dorsal brain images)” value (“NF-κB activation in brain” below) ([3]; 10 mg/kg i.v., 2, 4 and 6 hours) was “robust effect”. For the same compound, the “NF-κB signaling in the brain (light emission from head region, dorsal view)” value ([3]; Example 5, i.p., 2, 4, 6 and 8 hours) was “enhanced” and the “efficacy on aspects of ischemic disease” value [7] was “ineffective”.
For COc1ccc(CCN(C)CCCC(C#N)(c2ccc(OC)c(OC)c2)C(C)C)cc1OC (centres unmarked) [verapamil], the linear maze acquisition ([8]; at the most effective retention dose) is listed as “failed to enhance acquisition”, the linear maze retention ([8]; young adult mice) is listed as “enhancement effects at three doses” and the “retention of passive avoidance learning” value ([8]; young adult mice) is listed as “failed to facilitate retention”. The genetically-inhibited neurite extension ([9]; mouse cerebellar neurons) was “could restore”, the neuroprotection ([9]; normal neurons exposed to high concentrations of ethanol) was “neuroprotective” and the “acquisition and performance aspects of active avoidance” value ([10]; 2.5 and 5 mg/kg) was “improved”. For the same compound, the “acquisition and performance aspects of active avoidance” value ([10]; lower (1 mg/kg) and higher (10 mg/kg) doses) was “ineffective” and the “Deaths (n = 5)” value [11] was 5.
With gallopamil the “NF-κB activation in the brain” value ([4]; 1 mg/kg i.v., 3 surviving animals, 1 mg/kg) was “induced NF-κB activation; also recorded: increased NF-κB expression in the brain”, the “NF-κB activation in the brain” value ([4]; 10 mg/kg i.v., surviving animals, 2, 4, 6 hours) was “minor to no change” and the “NF-κB activation in brain” value ([3]; 0.5 mg/kg i.v., 2- and 4-hour time points) was “marginal effect”. The “NF-κB activation in brain” value ([3]; 0.5 mg/kg i.v., 6-hour time point) was “more dramatic effect” and the “efficacy on aspects of ischemic disease” value [7] was “ineffective”.
